According to patent publication US12275735B2, “Ergoline analogues” (BECKLEY PSYTECH LIMITED, priority 2021, dated 2025):

Experiments:
Format in all cases: cell-based
[1] = target: T1, Human 5-HT2A Receptor (Homo sapiens, UniProt P28223); assay: Serotonin receptor inositol phosphate 1 (IP1) assay (Multispan); conditions: 5-HT 2a receptor; reference 1 μM serotonin; FIG. 2
T1 construct: host or cells: CHO-K1
Description: (§1) Compounds 018 and 019 were assayed using a serotonin (2a, 2b and 2c receptors) inositol phosphate 1 (IP1) assay, provided by Multispan. The reference used was 1 μM serotonin to calculate the percentage relative response. The results can be seen in FIG. 2. Both compounds appear to some activity against all three target receptors in this assay.
(§2) IP-One Gq kit—cisbio—cat. No. 62IPAPEB
(§3) MULTISCREEN™ CHO-K1 Cell Line Stably Expressing Human 5-HT2A Receptor, Catalog DC1324-1

[2] = target: T2, Human 5-HT2B Receptor (Homo sapiens, UniProt P41595); assay: as above; conditions: 5-HT 2b receptor; reference 1 μM serotonin; FIG. 2
T2 construct: host or cells: CHO-K1
T2 sequence (P41595 whole entry): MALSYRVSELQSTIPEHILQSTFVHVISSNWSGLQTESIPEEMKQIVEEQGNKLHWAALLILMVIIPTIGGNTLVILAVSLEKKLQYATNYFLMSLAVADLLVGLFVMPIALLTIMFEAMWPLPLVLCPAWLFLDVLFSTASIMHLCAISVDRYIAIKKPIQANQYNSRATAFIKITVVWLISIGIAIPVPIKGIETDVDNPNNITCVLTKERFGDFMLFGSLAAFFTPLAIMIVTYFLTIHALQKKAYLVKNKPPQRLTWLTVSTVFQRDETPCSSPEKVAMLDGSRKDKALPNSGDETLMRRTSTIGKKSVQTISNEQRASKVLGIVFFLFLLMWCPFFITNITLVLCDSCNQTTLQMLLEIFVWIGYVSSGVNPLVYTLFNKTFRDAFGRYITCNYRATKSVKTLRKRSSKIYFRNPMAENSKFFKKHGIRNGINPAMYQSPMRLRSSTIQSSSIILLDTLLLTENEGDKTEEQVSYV
Description: as §1, §2
MULTISCREEN™ CHO-K1 Cell Line Stably Expressing Human 5-HT2B Receptor, Catalog DC1325-1

[3] = target: T3, Human 5-HT2C Receptor (Homo sapiens, UniProt P28335); assay: as above; conditions: 5-HT 2c receptor; reference 1 μM serotonin; FIG. 2
T3 construct: host or cells: CHO-K1
T3 sequence (P28335 33-458): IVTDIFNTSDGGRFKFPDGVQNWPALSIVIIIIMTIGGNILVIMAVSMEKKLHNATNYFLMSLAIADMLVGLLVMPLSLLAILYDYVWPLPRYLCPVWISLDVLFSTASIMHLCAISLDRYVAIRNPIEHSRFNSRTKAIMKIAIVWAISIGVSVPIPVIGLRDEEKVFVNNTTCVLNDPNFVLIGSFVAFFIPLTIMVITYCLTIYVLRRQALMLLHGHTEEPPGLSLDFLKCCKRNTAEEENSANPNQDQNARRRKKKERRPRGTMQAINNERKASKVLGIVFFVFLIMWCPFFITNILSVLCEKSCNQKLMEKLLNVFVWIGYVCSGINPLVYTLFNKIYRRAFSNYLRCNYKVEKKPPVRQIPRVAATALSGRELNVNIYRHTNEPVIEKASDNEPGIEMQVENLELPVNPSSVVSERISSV
Description: as §1, §2
(§4) MULTISCREEN™ CHO-K1 Cell Line Stably Expressing Human 5-HT2C Receptor, Catalog DC1326-1

[4] = target: T1, Human 5-HT2A Receptor; assay: Serotonin receptor calcium (Ca2+) assay (Multispan, FLIPR); conditions: 5-HT 2a receptor; reference 10 μM serotonin; FIG. 3
Description: (§5) Compounds 018 and 019 were assayed using a serotonin (2a, 2b and 2c receptors) calcium (Ca^2+) assay, provided by Multispan. The reference used was 10 μM serotonin to calculate the percentage relative response in relative light units (RLU). The results can be seen in FIG. 3. Both compounds have some activity against the 2a and 2c receptors.
(§6) FLIPR calcium 6 assay explorer kit—VWR—cat. No. MLDVR8190
as §3

[5] = target: T3, Human 5-HT2C Receptor; assay: as above; conditions: 5-HT 2c receptor; reference 10 μM serotonin; FIG. 3
Description: as §5, §6, §4

[6] = target: T4, HTR1A (Homo sapiens, UniProt P08908); assay: Serotonin receptor B-arrestin assay (DiscoverX PathHunter); conditions: 5-HT 1a receptor; reference 10 μM serotonin; FIG. 4
T4 construct: host or cells: CHO-K1
T4 sequence (P08908 1-422): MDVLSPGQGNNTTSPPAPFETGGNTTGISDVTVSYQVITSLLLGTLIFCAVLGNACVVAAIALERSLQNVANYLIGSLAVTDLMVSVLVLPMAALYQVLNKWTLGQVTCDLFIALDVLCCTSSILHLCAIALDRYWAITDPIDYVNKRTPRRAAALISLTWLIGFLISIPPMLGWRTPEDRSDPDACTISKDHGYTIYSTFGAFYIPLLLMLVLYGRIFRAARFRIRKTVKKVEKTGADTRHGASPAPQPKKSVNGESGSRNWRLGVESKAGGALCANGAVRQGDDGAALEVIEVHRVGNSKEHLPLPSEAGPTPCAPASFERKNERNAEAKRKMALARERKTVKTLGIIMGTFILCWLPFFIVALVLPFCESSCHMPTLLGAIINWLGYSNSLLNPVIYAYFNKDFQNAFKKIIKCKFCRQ
Description: (§7) Compounds 018 and 019 were assayed using a serotonin (1a, 1b, 2a and 2c receptors) B-arrestin assay, provided by DiscoverX. The reference used was 10 μM serotonin to calculate the percentage relative response. The results can be seen in FIG. 4.
(§8) For the B-arrestin assays the cells came with the kits apart from the 2b receptor assay (Valiscreen serotonin 5HT-26 (human) cell line—ES-314-C, Perkin Elmer).

[7] = target: T5, HTR1B (Homo sapiens, UniProt P28222); assay: as above; conditions: 5-HT 1b receptor; reference 10 μM serotonin; FIG. 4
T5 construct: host or cells: U2OS
T5 sequence (P28222 whole entry): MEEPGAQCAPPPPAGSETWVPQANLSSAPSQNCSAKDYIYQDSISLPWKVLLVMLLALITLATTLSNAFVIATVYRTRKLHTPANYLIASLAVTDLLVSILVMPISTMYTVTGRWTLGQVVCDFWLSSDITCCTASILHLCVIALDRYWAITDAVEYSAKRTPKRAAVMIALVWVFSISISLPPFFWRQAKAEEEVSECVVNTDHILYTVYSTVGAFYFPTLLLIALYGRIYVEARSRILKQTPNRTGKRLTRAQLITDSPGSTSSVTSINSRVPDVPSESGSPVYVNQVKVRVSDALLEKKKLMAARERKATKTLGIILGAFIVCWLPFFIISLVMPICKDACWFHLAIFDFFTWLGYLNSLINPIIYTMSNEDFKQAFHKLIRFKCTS
Description: as §7, §8

[8] = target: T6, HTR2A (Homo sapiens, UniProt P28223); assay: as above; conditions: 5-HT 2a receptor; reference 10 μM serotonin; FIG. 4
T6 construct: host or cells: U2OS
T6 sequence (P28223 whole entry): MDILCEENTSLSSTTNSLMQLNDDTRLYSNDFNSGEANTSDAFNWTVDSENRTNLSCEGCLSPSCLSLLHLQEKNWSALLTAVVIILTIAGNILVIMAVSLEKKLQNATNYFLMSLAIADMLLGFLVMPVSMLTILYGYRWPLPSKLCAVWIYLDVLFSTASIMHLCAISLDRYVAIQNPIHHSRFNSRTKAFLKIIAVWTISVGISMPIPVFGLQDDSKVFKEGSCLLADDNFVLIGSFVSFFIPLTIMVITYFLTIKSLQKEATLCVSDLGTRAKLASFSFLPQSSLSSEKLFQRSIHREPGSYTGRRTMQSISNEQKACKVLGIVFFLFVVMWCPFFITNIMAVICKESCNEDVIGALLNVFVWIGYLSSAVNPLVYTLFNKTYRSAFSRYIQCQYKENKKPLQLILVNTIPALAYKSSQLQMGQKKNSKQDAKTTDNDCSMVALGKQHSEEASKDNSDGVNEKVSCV
Description: as §7, §8

[9] = target: T7, HTR2C (Homo sapiens, UniProt P28335); assay: as above; conditions: 5-HT 2c receptor; reference 10 μM serotonin; FIG. 4
T7 construct: host or cells: U2OS
T7 sequence (P28335 33-458): T3 sequence (P28335 33-458)
Description: as §7, §8

[10] = target: T8, Human 5-HT1A Receptor (Homo sapiens, UniProt P08908); assay: Serotonin receptor cAMP assay (Multispan, HTRF); conditions: 5-HT 1a receptor; reference 10 μM forskolin, serotonin control; FIG. 1
T8 construct: host or cells: HEK293T
T8 sequence (P08908 1-422): T4 sequence (P08908 1-422)
Description: (§9) Compounds 018 (above, left) and 019 (above, right) were assayed using a serotonin (1a, 1b, 2a, 2c and 7 receptors) cAMP assay, provided by Multispan. The reference used was 10 μM forskolin (a cAMP activator) to calculate the percentage relative response, serotonin was used as the control. The results can be seen in FIG. 1. Compound 019 was active against in all other receptor assays.
(§10) cAMP Gs dynamic kit—cisbio—cat. No. 62AM4PEC
MULTISCREEN™ HEK293T Cell Line Stably Expressing Human 5-HT1A Receptor, Catalog DC1319a

[11] = target: T9, Human 5-HT1B Receptor (Homo sapiens, UniProt P28222); assay: Serotonin receptor cAMP assay (Multispan, HTRF); conditions: 5-HT 1b receptor; reference 10 μM forskolin, serotonin control; FIG. 1
T9 construct: host or cells: HEK293T
T9 sequence (P28222 whole entry): as the sequence (P28222 whole entry) above
Description: as §9, §10
MULTISCREEN™ HEK293T Cell Line Stably Expressing Human 5-HT1B Receptor, Catalog DC1320a
MULTISCREEN™ HEK293T Cell Line Stably Expressing Human 5HT1B Receptor, Catalog DC1320a

[12] = target: T1, Human 5-HT2A Receptor; assay: Serotonin receptor cAMP assay (Multispan, HTRF); conditions: 5-HT 2a receptor; reference 10 μM forskolin, serotonin control; FIG. 1
Description: as §9, §10, §3

[13] = target: T3, Human 5-HT2C Receptor; assay: Serotonin receptor cAMP assay (Multispan, HTRF); conditions: 5-HT 2c receptor; reference 10 μM forskolin, serotonin control; FIG. 1
Description: as §9, §10, §4

[14] = target: T10, Human 5-HT7 Receptor (Homo sapiens, UniProt P34969); assay: Serotonin receptor cAMP assay (Multispan, HTRF); conditions: 5-HT 7 receptor; reference 10 μM forskolin, serotonin control; FIG. 1
T10 construct: host or cells: HEK293T
T10 sequence (P34969 whole entry): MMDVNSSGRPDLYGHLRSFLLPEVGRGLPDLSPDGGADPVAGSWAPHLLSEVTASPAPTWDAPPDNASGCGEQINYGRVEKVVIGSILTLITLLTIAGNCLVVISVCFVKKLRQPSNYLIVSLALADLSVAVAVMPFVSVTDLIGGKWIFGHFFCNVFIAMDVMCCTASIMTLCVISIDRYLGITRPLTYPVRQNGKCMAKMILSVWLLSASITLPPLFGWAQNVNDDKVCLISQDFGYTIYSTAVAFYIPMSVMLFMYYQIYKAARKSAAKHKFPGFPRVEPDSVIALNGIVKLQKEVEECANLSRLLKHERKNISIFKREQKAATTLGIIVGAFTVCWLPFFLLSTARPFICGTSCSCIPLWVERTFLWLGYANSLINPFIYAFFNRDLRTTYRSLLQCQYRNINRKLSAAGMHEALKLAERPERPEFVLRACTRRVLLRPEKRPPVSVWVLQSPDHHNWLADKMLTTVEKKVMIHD
Description: as §9, §10
MULTISCREEN™ HEK293T Cell Line Stably Expressing Human 5-HT7 Receptor, Catalog DC1334

T1 sequence (P28223 whole entry): as the sequence (P28223 whole entry) above

SMILES: CCCCCN(C(=O)[C@@H]1C=C2c3cccc4[nH]cc(c34)C[C@H]2N(C)C1)C(C)C [Compound 018, (4R,6R,7R)-6-methyl-4-[pentyl(propan-2-yl)carbamoyl]-6,11-diazatetra-cyclo[7.6.1.0^2,^7.0^12,^16] hexadeca-1(16),2,9,12,14-pentaen-6-ium]
- IP1 assay activity [1]: some activity
- IP1 assay activity [2]: some activity
- IP1 assay activity [3]: some activity
- Calcium (Ca2+) assay activity [4]: some activity
- Calcium (Ca2+) assay activity [5]: some activity
- B-arrestin assay activity [6]: some activity
- B-arrestin assay activity [7]: some activity
- B-arrestin assay activity [8]: some activity
- B-arrestin assay activity [9]: some activity

SMILES: CC(C)NC(=O)[C@@H]1C=C2c3cccc4[nH]cc(c34)C[C@H]2N(C)C1 [Compound 019, (4R,6R,7R)-6-methyl-4-[(propan-2-yl)carbamoyl]-6,11-diazatetra-cyclo[7.6.1.0^2,^7^7.0^12,^16] hexadeca-1(16),2,9,12,14-pentaen-6-ium]
- cAMP assay activity [10]: active
- cAMP assay activity [11]: active
- cAMP assay activity [12]: stimulates the 5HT2aR leading to downstream activation of cAMP
- cAMP assay activity [13]: active
- cAMP assay activity [14]: active
- IP1 assay activity [1]: some activity
- IP1 assay activity [2]: some activity
- IP1 assay activity [3]: some activity
- Calcium (Ca2+) assay activity [4]: some activity
- Calcium (Ca2+) assay activity [5]: some activity
- B-arrestin assay activity [6]: some activity
- B-arrestin assay activity [7]: some activity
- B-arrestin assay activity [8]: some activity
- B-arrestin assay activity [9]: some activity
